The subject of assay [1] is HeLa. Briefly: Mitochondrial membrane potential (JC-1), HeLa. Format: cell-based, human. Particulars: HeLa, 50, 100 and 250 nM; time- and concentration-dependent. The method, then: Mitochondria play an essential role in the propagation of apoptosis. It is well established that, at an early stage, apoptotic stimuli alter the mitochondrial transmembrane potential (Δψmt). Δψmt was monitored by the fluorescence of the dye JC-1. […] This occurred in a time- and concentration-dependent fashion, and, in both cell lines, a significant increase was observed after a 6 h treatment. The disruption of Δψmt is associated with the appearance of annexin-V positivity in the treated cells when they are in an early apoptotic stage. […] Cells were treated with the indicated concentration of compound for 24 or 48 h and then stained with the fluorescent probe JC-1 for analysis of mitochondrial potential or H2-DCFDA for the evaluation of ROS levels. Cells were then analyzed by flow cytometry as described in the experimental section.

The subject of a further assay is HT-29. In words: In vitro antiproliferative activity (MTT), HT-29. Format: cell-based. Particulars: Homo sapiens, tumor cell proliferation, 72 h, mean ± SE. Here is the method: (§1) Human T-cell leukemia (CCRF-CEM and Jurkat) and human B-cell leukemia (SEM) cells were grown in RPMI-1640 medium (Gibco, Milano, Italy). Breast adenocarcinoma (MCF7), human cervix carcinoma (HeLa), and human colon adenocarcinoma (HT-29) cells were grown in DMEM medium (Gibco, Milano, Italy), all supplemented with 115 units/mL penicillin G (Gibco, Milano, Italy), 115 μg/mL streptomycin (Invitrogen, Milano, Italy), and 10% fetal bovine serum (Invitrogen, Milano, Italy). Stock solutions (10 mM) of the different compounds were obtained by dissolving them in dimethyl sulfoxide (DMSO). Individual wells of a 96-well tissue culture microtiter plate were inoculated with 100 μL of complete medium containing 8 × 10^3 cells. The plates were incubated at 37 °C in a humidified 5% CO2 incubator for 18 h prior to the experiments. After medium removal, 100 μL of fresh medium containing the test compound at different concentrations was added to each well in triplicate and incubated at 37 °C for 72 h. The percentage of DMSO in the medium never exceeded 0.25%. This was also the maximum DMSO concentration in all cell-based assays described below. […] Different concentrations of the test compounds were added, and viability was determined 72 h later by the MTT test. For cytotoxicity evaluations in resting PBL cultures, non-adherent cells were resuspended (5 × 10^5 cells/mL) and treated for 72 h with the test compounds, as described above.

In assay [2] the test system is HeLa. In words: Annexin-V/PI apoptosis assay, HeLa. It is filed as cell-based, human. The note with it: 24 h, lowest concentration used (50 nM). Here is the method:
(§2) To evaluate the induction of apoptosis by compound 4o in two cell lines (HeLa and Jurkat), we used an annexin-V/PI assay. Dual staining for annexin-V and with PI permits discrimination between live cells (annexin-V^−/PI^−), early apoptotic cells (annexin-V^+/PI^−), late apoptotic cells (annexin-V^+/PI^+) and necrotic cells (annexin-V^−/PI^+).
(§3) Cell death was determined by flow cytometry of cells double stained with annexin V/FITC and PI. The Coulter Cytomics FC500 (Beckman Coulter) was used to measure the surface exposure of phosphatidyl serine on apoptotic cells according to the manufacturer’s instructions (Annexin-V Fluos, Roche Diagnostics).

For assay [3], the system named is Jurkat. Briefly: In vitro antiproliferative activity (MTT), Jurkat. It is filed as cell-based. The note with it: Homo sapiens, tumor cell proliferation, 72 h, mean ± SE. The method, then: as §1
In assay [4] the test system is HeLa. In words: ROS production (H2-DCFDA), HeLa. The note with it: in comparison with control cells. It is filed as cell-based, human. Here is the method:
Figure 7 Assessment of mitochondrial membrane potential (Δψmt) and production of ROS after treatment of HeLa (Panels A,B) or Jurkat (Panels C,D) cells with compound 4o. Cells were treated with the indicated concentration of compound for 24 or 48 h and then stained with the fluorescent probe JC-1 for analysis of mitochondrial potential or H2-DCFDA for the evaluation of ROS levels. Cells were then analyzed by flow cytometry as described in the experimental section.
It is also well known that dissipation of mitochondrial potential is associated with mitochondrial production of ROS[38]. Superoxide anion is produced by mitochondria due to a shift from the normal 4-electron reduction of O2 to a 1-electron reduction when cytochrome c is released from mitochondria upon apoptosis. Therefore, we investigated whether ROS production increased after treatment with compound 4o. We utilized the dye 2,7-dichlorodihydrofluorescein diacetate (H2-DCFDA), which is oxidized to the fluorescent compound dichlorofluorescein (DCF) upon ROS induction.

The subject of assay [5] is PBL not stimulated with PHA. Briefly: Cytotoxicity in resting peripheral blood lymphocytes. Format: cell-based. The note with it: Homo sapiens, Lymphocyte, PBL from healthy donors, 72 h, MTT, read-out: IC50 PBLresting. Here is the method: This value was almost 600 times higher than that observed against the Jurkat lymphoblastic cell line.
as §1, with “For cytotoxicity evaluations in resting PBL cultures, non-adherent cells were resuspended (5 × 10^5 cells/mL) and treated for 72 h with the test compounds, as described above.” left out

Assay [6] has as its system Jurkat. Briefly: Annexin-V/PI apoptosis assay, Jurkat. Format: cell-based, human. The note with it: 24 h, lowest concentration used (50 nM). Here is the method: as §2, §3
A further assay deals with A549. In words: In vitro antiproliferative activity (MTT), A549. It is filed as cell-based. Particulars: Homo sapiens, tumor cell proliferation, 72 h, mean ± SE. Here is the method:
as §1

For another assay, the system named is bovine brain tubulin. Briefly: Inhibition of tubulin polymerization (turbidimetry). Format: biochemical. The method, then:
To evaluate the effect of the compounds on tubulin assembly in vitro[22], varying concentrations of compounds were preincubated with 10 μM bovine brain tubulin in glutamate buffer at 30 °C and then cooled to 0 °C. After addition of 0.4 mM GTP (final concentration), the mixtures were transferred to 0 °C cuvettes in a recording spectrophotometer equipped with an electronic temperature controller and warmed to 30 °C. Tubulin assembly was followed turbidimetrically at 350 nm. […] The ability of the test compounds to inhibit colchicine binding to tubulin was measured as described, except that the reaction mixtures contained 1 μM tubulin, 5 μM [^3H]colchicine and 1 or 5 μM test compound.

For orientation: IC50 means the concentration that gives 50% inhibition.

Like-named read-outs stand apart in the source and are kept apart here.

On to `CCOc1ccc(-c2nccn2-c2cc(OC)c(OC)c(OC)c2)cc1Cl` [Compound 4o, 2-(3′-Chloro-4′-ethoxyphenyl)-1-(3′,4′,5′-trimethoxyphenyl)-1H-imidazole], for which the “percentage of cells with low Δψmt (JC-1)” value with HeLa [1] is on record as “remarkable increase”. Further, the IC50 in the assay on HT-29 is 0.4 ± 0.06 nM; with Jurkat [3], 0.9 ± 0.2 nM; in assay [5], greater than 10000 nM; with A549 it was 0.57 ± 0.17 nM; in the assay with bovine brain tubulin (repeated beside the calculated energies, read-out: inhibition of tubulin polymerization IC50 (Table 4)), 870 nM; with bovine brain tubulin (tubulin at 10 μM, 20 min incubation, read-out: Tubulin assembly IC50 ± S.D.), 870 nM. Further, the annexin-V positive cells entry with HeLa [2] and in the assay on Jurkat [6] was “significant accumulation of annexin-V positive cells” in each case. The “ROS production (H2-DCFDA)” value in the assay with HeLa [4] is “induced the production of large amounts of ROS”.

The values above are taken from paper PMC4877593, “Design and Synthesis of Potent in Vitro and in Vivo Anticancer Agents Based on 1-(3′,4′,5′-Trimethoxyphenyl)-2-Aryl-1H-Imidazole” (Scientific Reports, 2016).
